target: T1, GST-human KRas166 (G12V) GPPNHP (Homo sapiens, UniProt P01116, G12V); test: KRas small-molecule screening by SPR (Biacore T200); type: binding; settings: compound 100 uM, 5% DMSO buffer; immobilised GST-KRas166 (G12V) GPPNHP
T1 construct: made in house; host or cells: E. coli C41(DE3)
Method: For SPR assays pGEX-KRAS(G12V) plasmid was transformed into E. coli C41(DE3). Bacterial cells were cultured at 37° C. to an OD600 of 0.6 and induced with IPTG (final 0.1 mM) at 18° C. over night. The GST fusion proteins were extracted from bacteria pellets after cell disruption in 140 mM NaCl, 2.7 mM KCl, 10 mM NaH2PO4, 1.8 mM KH2PO4, 1 mM EDTA, 2 mM MgCl2 pH 7.4 and purified by glutathione-sepharose column chromatography (GE Healthcare), eluting with 50 mM Tris-HCl pH8.0, 10 mM reduced glutathione, 1 mM DTT, 2 mM MgCl2. The eluted proteins were dialysed against 50 mM Tris-HCl pH8.0, 1 mM DTT, 2 mM MgCl2 and concentrated to 10 mg/ml using a Biomax-30 ULTRAFREE-15 centrifugal filter device (Millipore). Purified KRAS protein was loaded with GPPNHP as described elsewhere (Pacold et al., 2000). Loaded protein was then purified by gel filtration on a HiLoad Superdex-75 HR column (GE Healthcare) in 1×PBS pH7.4, 5 mM MgCl2 and concentrated for storage.
Protocol for KRas Small-Molecule Screening and Affinity Measurements by SPR
To a previously immobilized CM5 chip (GE Healthcare BR-1005-30) with anti GST antibody via amine coupling method, GST in channel 1 and GST-human KRas166 (G12V) GPPNHP in channel 2 were immobilised. GST was immobilised between 2,000 and 5,000 Response units. KRAS166 (G12V) was immobilized between 10,000 to 15,000 Response Units.
In a 96 well plate, compounds were diluted in […], 5 mM MgCl2 and 5% DMSO Buffer to a final concentration of 100 uM. DCAl was used as positive control. Experiment also included a solvent correction curve for 5% DMSO. Screening and evaluation of the protein immobilization and the compounds screening was done accordingly to the BIACORE T200 control and evaluation software.
Calculations for how many response units are required for a 1:1 ratio of compound/protein interaction are shown below. • Protein immobilisation: 10,000 RU; average fragment 300 Da in size. • Rmax=(MWA/MWL)×RL×SM • MWA is the molecular weight of the analyte in Da • MWL is the molecular weight of the ligand in Da • RL is the immobilization level in RU • SM is the molar stoichiometry (assume 1:1) • Rmax=300/47,500×10,000×1 • Rmax=63 RU. Cell Viability Assay protocols Assay 1

SMILES | SPR Response Units
COc1nc(-c2cccc3c2OC(CNC(=O)C2CCOCC2)CO3)ccc1NC(=O)N[C@H]1CC[C@@H](N)C1 (stereo partly drawn) [Example 141, tetrahydro-pyran-4-carboxylic acid (8-{5-[3-((1S,3R)-3-amino-cyclopentyl)-ureido]-6-methoxy-pyridin-2-yl}-2,3-dihydro-benzo[1,4]dioxin-2-ylmethyl)-amide] | 80 Response Units
CN(C)CCOc1ccc(C(=O)NCC2COc3cccc(-c4cccc(N(C)C)n4)c3O2)cc1 (centres unmarked) [Example 103, 4-(2-Dimethylamino-ethoxy)-N-[8-(6-dimethylamino-pyridin-2-yl)-2,3-dihydro-benzo[1,4]dioxin-2-ylmethyl]-benzamide] | 64 Response Units
COc1cccc(-c2cccc3c2OC(CN2C(=O)NC(C)(C)C2=O)CO3)n1 (centres unmarked) [Example 35, 3-[8-(6-Methoxy-pyridin-2-yl)-2,3-dihydro-benzo[1,4]dioxin-2-ylmethyl]-5,5-dimethyl-imidazolidine-2,4-dione] | 33 Response Units
COc1cccc(-c2cccc3c2OC(CN2C(=O)CN(C4CCNCC4)C2=O)CO3)n1 (centres unmarked) [Example 37, 3-[8-(6-Methoxy-pyridin-2-yl)-2,3-dihydro-benzo[1,4]dioxin-2-ylmethyl]-1-piperidin-4-yl-imidazolidine-2,4-dione] | 31 Response Units
CN(C)CCOc1ccc(C(=O)NCC2COc3cccc(-c4ccccn4)c3O2)cc1 (centres unmarked) [Example 104, 4-(2-Dimethylamino-ethoxy)-N-(8-pyridin-2-yl-2,3-dihydro-benzo[1,4]dioxin-2-ylmethyl)-benzamide] | 35 Response Units
COc1cccc(-c2cccc3c2OCCO3)n1 [Example 1, 2-(2,3-Dihydro-benzo[1,4]dioxin-5-yl)-6-methoxy-pyridine] | 10 Response Units
CC(C)(C)OC(=O)NCc1ccc(C(=O)N2CCN(c3cccc4c3OCCO4)CC2)cc1 [Example 169, {4-[4-(2,3-Dihydro-benzo[1,4]dioxin-5-yl)-piperazine-1-carbonyl]-benzyl}-carbamic acid tert-butyl Ester] | 25 Response Units
COc1cccc(-c2cccc3c2OC(CNC(=O)C2CCN(C)CC2)CO3)n1 (centres unmarked) [Example 50, 1-Methyl-piperidine-4-carboxylic acid [8-(6-methoxy-pyridin-2-yl)-2,3-dihydro-benzo[1,4]dioxin-2-ylmethyl]-amide] | 14 Response Units
COc1cccc(-c2cccc3c2OC(CN2C(=O)NC4(CCN(C)CC4)C2=O)CO3)n1 (centres unmarked) [Example 34, 3-[8-(6-Methoxy-pyridin-2-yl)-2,3-dihydro-benzo[1,4]dioxin-2-ylmethyl]-8-methyl-1,3,8-triaza-spiro[4.5]decane-2,4-dione] | 37 Response Units
COc1cc(NC(=O)C2CCN(C)CC2)cc(-c2cccc3c2OCCO3)n1 [Example 4, 1-Methyl-piperidine-4-carboxylic acid [2-(2,3-dihydro-benzo[1,4]dioxin-5-yl)-6-methoxy-pyridin-4-yl]-amide] | 37 Response Units
CN1CCN(Cc2ccc(C(=O)NCC3COc4cccc(-c5ccc(NCC6CCOCC6)cn5)c4O3)o2)CC1 (centres unmarked) [Example 83, 5-(4-Methyl-piperazin-1-ylmethyl)-furan-2-carboxylic acid (8-{5-[(tetrahydro-pyran-4-ylmethyl)-amino]-pyridin-2-yl}-2,3-dihydro-benzo[1,4]dioxin-2-ylmethyl)-amide] | 16 Response Units
COc1nc(-c2cccc3c2OC(CNC(=O)C2CCOCC2)CO3)ccc1Nc1ccc(C(=O)N(C)C)cc1 (centres unmarked) [Example 94, Tetrahydro-pyran-4-carboxylic acid {8-[5-(4-dimethyl-carbamoyl-phenylamino)-6-methoxy-pyridin-2-yl]-2,3-dihydro-benzo[1,4]dioxin-2-ylmethyl}-amide] | 111 Response Units
COc1cc(NC(=O)[C@H]2CC[C@@H](N)CC2)cc(-c2cccc3c2OCCO3)n1 [Example 21, 4-Amino-cyclohexanecarboxylic acid [2-(2,3-dihydro-benzo[1,4]dioxin-5-yl)-6-methoxy-pyridin-4-yl]-amide] | 66 Response Units
COc1cccc(-c2cccc3c2OC(CNCC2CCN(C(=O)C4CCOCC4)CC2)CO3)n1 (centres unmarked) [Example 30, [4-({[8-(6-Methoxy-pyridin-2-yl)-2,3-dihydro-benzo[1,4]dioxin-2-ylmethyl]-amino}-methyl)-piperidin-1-yl]-(tetrahydro-pyran-4-yl)-methanone] | 42 Response Units
CN1CCN(Cc2ccc(C(=O)NCC3COc4cccc(-c5cn(C)cn5)c4O3)o2)CC1 (centres unmarked) [Example 137, 5-(4-Methyl-piperazin-1-ylmethyl)-furan-2-carboxylic acid [8-(1-methyl-1H-imidazol-4-yl)-2,3-dihydro-benzo[1,4]dioxin-2-ylmethyl]-amide] | 50 Response Units
OCC1COc2cccc(-c3ccc(OCCN4CCOCC4)cn3)c2O1 (centres unmarked) [Example 110, {8-[5-(2-Morpholin-4-yl-ethoxy)-pyridin-2-yl]-2,3-dihydro-benzo[1,4]dioxin-2-yl}-methanol] | 4.6 Response Units
COc1cccc(-c2cccc3c2OC(CNCc2cccnc2)CO3)n1 (centres unmarked) [Example 28, [8-(6-Methoxy-pyridin-2-yl)-2,3-dihydro-benzo[1,4]dioxin-2-ylmethyl]-pyridin-3-ylmethyl-amine] | 28 Response Units
COc1nc(-c2cccc3c2OC(CNC(=O)C2CCOCC2)CO3)ccc1Nc1cccnc1 (centres unmarked) [Example 88, Tetrahydro-pyran-4-carboxylic acid {8-[6-methoxy-5-(pyridin-3-ylamino)-pyridin-2-yl]-2,3-dihydro-benzo[1,4]dioxin-2-ylmethyl]-amide] | 161 Response Units
COc1nc(-c2cccc3c2O[C@H](CNC(=O)c2ccc(CN4CCN(C)CC4)o2)CO3)ccc1N [Example 87, 5-(4-Methyl-piperazin-1-ylmethyl)-furan-2-carboxylic acid [(R)-8-(5-amino-6-methoxy-pyridin-2-yl)-2,3-dihydro-benzo[1,4]dioxin-2-ylmethyl]-amide] | 56 Response Units
COc1nc(-c2cccc3c2OCCO3)ccc1Nc1cccc(C(=O)NCc2cccc(F)n2)c1 [Example 168, 3-[6-(2,3-Dihydro-benzo[1,4]dioxin-5-yl)-2-methoxy-pyridin-3-ylamino]-N-(6-fluoro-pyridin-2-ylmethyl)-benzamide] | 23 Response Units
COc1cccc(-c2cccc3c2OC(CNC(=O)C2CCOCC2)CO3)n1 (centres unmarked) [Example 45, Tetrahydro-pyran-4-carboxylic acid [8-(6-methoxy-pyridin-2-yl)-2,3-dihydro-benzo[1,4]dioxin-2-ylmethyl]-amide] | 12 Response Units
COc1nc(-c2cccc3c2OCCO3)ccc1NC(=O)CC1CCN(C)CC1 [Example 113, N-[6-(2,3-Dihydro-benzo[1,4]dioxin-5-yl)-2-methoxy-pyridin-3-yl]-2-(1-methyl-piperidin-4-yl)-acetamide] | 30 Response Units
COc1nc(-c2cccc3c2OCCO3)ccc1Nc1ccc(C(=O)NCc2cccc(C)n2)cc1 [Example 174, 4-[6-(2,3-Dihydro-benzo[1,4]dioxin-5-yl)-2-methoxy-pyridin-3-ylamino]-N-(6-methyl-pyridin-2-ylmethyl)-benzamide] | 43 Response Units
O=C(NCC1COc2cccc(-c3ccc(OCCN4CCOCC4)cn3)c2O1)C1CCOCC1 (centres unmarked) [Example 111, Tetrahydro-pyran-4-carboxylic acid {8-[5-(2-morpholin-4-yl-ethoxy)-pyridin-2-yl]-2,3-dihydro-benzo[1,4]dioxin-2-ylnethyl}-amide] | 29 Response Units
COc1cc(NC(=O)[C@@H]2CCNC2)cc(-c2cccc3c2OCCO3)n1 [Example 17, (R)-Pyrrolidine-3-carboxylic acid [2-(2,3-dihydro-benzo[1,4]dioxin-5-yl)-6-methoxy-pyridin-4-yl]-amide] | 84 Response Units
COc1nc(-c2cccc3c2OCCO3)ccc1Nc1ccc(C(=O)NCc2cc[nH]c(=O)c2)cc1 [Example 161] | 16 Response Units
